One test relates to A. baumannii RCH-69. Description: Mouse model of A. baumannii pneumonia, Study 3: survival. It is filed as in vivo, Acinetobacter baumannii. The note with it: neutropenic C3H/HeN mice, q 8 h I.P. 3 days, compound (I) 200 mg/kg, meropenem 50 mg/kg, colistin 125000 Ul/kg. Here is the method: The bacterial inoculum was prepared in order to obtain a suspension containing 10^8 CFU/mL of Acinetobacter baumannii in saline.
Experimentations were performed with six-week old female C3H/HeN mice (18-20 g, Breeding Centre JANVIER (Ile saint Genest Mayenne 53)) because of their particular susceptibility to Acinetobacter baumannii and the reproducibility of the results (inbreeding in the breed). Each mouse was individually marked and housed in cages containing five animals/cage under ventilated and controlled (temperature and humidity) atmosphere.
The mice were rendered transiently neutropenic by 2 intra-peritoneal (IP) injections of 150 μL of cyclophosphamide (Endoxan® 150 mg/kg) 4 (D-4) and 3 (D-3) days before the Acinetobacter baumannii inoculation (Day 0). This transient immunosuppression was sufficient to facilitate the development of the A. baumannii pneumonia while allowing the recovery of the neutrophil influx 2 (Day 2) days after inoculation in order to avoid or limit a systemic bacterial dissemination.
Mice were anesthetized by a mixture of oxygen and isoflurane. The bacterial inoculation was performed on Day 0 by intra-tracheal installation using an endotracheal catheter (50 μl of the suspension, thus 5.106 CFU). The positioning of the catheter in the trachea (instead of in the oesophagus) was checked by a “ring test”. The bacterial count in lungs was checked for all study groups by sacrificing one mouse immediately after inoculation.
Survival observations were assessed twice daily, up to 4 days post infection. The survival rates were compared with the Chi-square test or the Fisher exact test as appropriate. The survival curves were compared by the Kaplan-Meier method.
The aim of this experiment was to assess the survival rate of transiently neutropenic female C3H/HeN mice administered, 3 hours post-inoculation of A. baumannii RCH-69 via intra-tracheal route, with a compound (I) via intra-peritoneal route at 200 mg/kg 3 times daily (every 8 hours) for 3 days alone and in combination with meropenem at 50 mg/kg 3 times daily (every 8 hours) for 3 days or with colistin at 125000 UI/kg 3 times daily (every 8 hours) for 3 days. 85 mice were allocated into 6 groups as follows.
Six vials of 8 mL each containing 94.2 mg/mL of compound (I) and 47.1 mg/mL of PVP 12 PF (Kollidon 12 PF) were prepared and stored between +2° C. and +8° C. Following storage, each vial was homogenized by manual shaking and diluted by 2-fold in 13.72 mg/mL NaCl aqueous solution in order to obtain a 47.1 mg of compound (I)/mL isotonic suspension. In Groups 2, 4 and 5, mice were administered with 100 μL of the 47.1 mg/mL compound (I) suspension.

A further test has as its system A. baumannii SAN-94040. Kind of test: Additional mouse model of A. baumannii pneumonia (Example 7): survival. It is filed as in vivo, Acinetobacter baumannii. As to the method:
The bacterial inoculum was prepared in order to obtain a suspension containing 10^8 CFU/mL of Acinetobacter baumannii in saline, unless indicated otherwise.
Experimentations were performed with six-week old female C3H/HeN mice (18-20 g, Harlan Laboratories) because of their particular susceptibility to Acinetobacter baumannii. Each mouse was individually marked and housed in cages containing five animals/cage under ventilated and controlled (temperature and humidity) atmosphere.
The mice were rendered transiently neutropenic by 2 intra-peritoneal (IP) injections of 150 μL of cyclophosphamide (150 mg/kg) 4 (D-4) and 3 (D-3) days before the Acinetobacter baumannii inoculation (Day 0).
Mice were infected with 50 μL the prepared bacterial suspension (inoculums depending on experiment) via intra-tracheal inoculation of mouse. In the study, three animals (Group 1) were sacrificed after inoculation to determine bacterial burden in lungs at the time of infection. Lungs were aseptically removed, weighed and homogenized in 1 mL of 0.9% NaCl. Homogenates were serially diluted and plated on TSA agar. Plates were incubated overnight at 37° C. in 5% CO2. Following incubation, colonies were counted for bacterial growth.
Animal survival was assessed every day for 7 days. Survival data were tabulated and a Probit analysis performed to determine the 50% protective dose (PD50) for each group.
The aim of this experiment was to assess the survival rate of transiently neutropenic female C3H/HeN mice administered, 3 hours post-inoculation of A. baumannii SAN-94040 via intra-tracheal route, with compound (I) via intra-peritoneal route at 200 mg/kg 3 times daily (every 8 hours) for 1 day alone and in combination with meropenem at 30 mg/kg 3 times daily (every 8 hours) for 1 day.

Test [1] concerns Staphylococcus aureus (MSSA, MRSA, VISA, VRSA). To be noted: VISA and VRSA strains; cited from earlier work.
Test [2] relates to MSSA, MRSA and VISA infections. To be noted: murine model; cited from earlier work.
The next test deals with S. aureus. To be noted: healthy human volunteers, Phase I study; cited from earlier work.
The mark [3] stands for this setting: 24 h after RCH strain infection.
The mark [4] stands for this setting: 48 h after RCH strain infection.
Where [5] appears, read: 72 h after RCH strain infection.
Setting [6] is: 96 h after RCH strain infection.
Setting [7] is: Example 7, 24 h after SAN-94040 infection, compound (I) 200 mg/kg, meropenem 30 mg/kg, colistin 125000 UI/kg Q8h I.P. for 1 day.
[8] abbreviates: Example 7, 24 h after infection, doses as E246.
[9] abbreviates: Example 7, 48 h after infection, doses as E246.
The mark [10] stands for this setting: Example 7, 72 h after infection, doses as E246.
Setting [11] is: Example 7, 96 h after infection, doses as E246.

For the compound `CCc1cc(O)c(Oc2ccc(C(N)=O)cc2F)cc1F` [compound (I), 4-(4-ethyl-5-fluoro-2-hydroxyphenoxy)-3-fluorobenzamide], the No. of survivors in the test with A. baumannii RCH-69 (0 h after RCH strain infection) was 13; with A. baumannii RCH-69 (setting [3]), 5; in the test with A. baumannii RCH-69 (setting [4]), 0; with A. baumannii RCH-69 (setting [5]), 0; in the test on A. baumannii RCH-69 (setting [6]), 0; in the test with A. baumannii SAN-94040 (setting [7]), 10. The No. of survivors in the test on A. baumannii SAN-94040 (setting [9]) was 8; in the test with A. baumannii SAN-94040 (setting [10]), 6; in the test with A. baumannii SAN-94040 (setting [11]), 6. The “survivors (%)” value is 100% in the test on A. baumannii RCH-69 (0 h after RCH strain infection); 38% in the test on A. baumannii RCH-69 (setting [3]); 100% in the test on A. baumannii SAN-94040 (setting [8]); 80% in the test on A. baumannii SAN-94040 (setting [9]); 60% in the test with A. baumannii SAN-94040 (setting [10]); 60% with A. baumannii SAN-94040 (setting [11]). In the test with A. baumannii SAN-94040 (Example 7, text, time not stated), the survival rate stood at 60%. In addition, the in vitro activity result in test [1] is recorded as “highly active”. Further, the in vivo activity result in test [2] is on record as “active in vivo”. Also, the ex vivo activity result in the test on S. aureus is listed as “ex vivo bactericidal activity”.

Take `C[C@@H](O)[C@H]1C(=O)N2C(C(=O)O)=C(S[C@@H]3CN[C@H](C(=O)N(C)C)C3)[C@H](C)[C@H]12` [meropenem]: the No. of survivors was 14 with A. baumannii RCH-69 (0 h after RCH strain infection); 14 in the test on A. baumannii RCH-69 (setting [3]); 0 in the test with A. baumannii RCH-69 (setting [4]); 0 with A. baumannii RCH-69 (setting [5]); 0 in the test on A. baumannii RCH-69 (setting [6]); 10 in the test on A. baumannii SAN-94040 (setting [7]). Further, the No. of survivors in the test with A. baumannii SAN-94040 (setting [9]), in the test with A. baumannii SAN-94040 (setting [10]) and with A. baumannii SAN-94040 (setting [11]) was 10 throughout. Moreover, the “survivors (%)” value with A. baumannii RCH-69 (0 h after RCH strain infection), with A. baumannii RCH-69 (setting [3]), in the test with A. baumannii SAN-94040 (setting [8]), with A. baumannii SAN-94040 (setting [9]), with A. baumannii SAN-94040 (setting [10]) and with A. baumannii SAN-94040 (setting [11]) was 100% throughout.

(Values after patent US20150065416A1, “NOVEL DRUG COMBINATION” (FAB PHARMA SAS, priority 2013, published 2015).)
